This is an account of results in US9718790B2, “Triazine derivative and pharmaceutical composition having an analgesic activity comprising the same” (SHIONOGI & CO., LTD., priority 2010, dated 2017).

The term IC50 denotes the concentration that gives 50% inhibition.

One experiment deals with human P2X3 receptor (Homo sapiens (Human), UniProt P56373). The experiment in a line: Evaluation of human P2X3 receptor inhibitory activity (Fluo-3 calcium fluorescence, FDSS 3000, ATP stimulation).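 Further: stimulus was 50 nM ATP with fluorescence followed for 3 min, and the response per well was peak post-ATP fluorescence divided by the reading at measurement start.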 It is filed as cell-based. The note with it: C6BU-1 cells stably expressing human P2X3 receptor.
human P2X3 receptor, sequence (P56373 whole entry): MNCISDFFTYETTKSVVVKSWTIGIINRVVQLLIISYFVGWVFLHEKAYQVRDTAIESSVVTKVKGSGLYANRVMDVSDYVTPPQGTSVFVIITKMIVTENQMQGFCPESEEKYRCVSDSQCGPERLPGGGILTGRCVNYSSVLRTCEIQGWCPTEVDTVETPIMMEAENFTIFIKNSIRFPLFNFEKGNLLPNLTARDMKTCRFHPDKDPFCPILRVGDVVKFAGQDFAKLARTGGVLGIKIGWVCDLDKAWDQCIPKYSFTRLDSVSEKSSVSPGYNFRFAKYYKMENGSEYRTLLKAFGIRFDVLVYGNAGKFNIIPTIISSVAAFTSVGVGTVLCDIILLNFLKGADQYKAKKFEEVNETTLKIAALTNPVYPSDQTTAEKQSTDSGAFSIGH
With `Cc1ccc(Cn2c(=O)n(C[C@H](C)C(=O)O)c(=O)[nH]/c2=N\c2ccc(OC3CCCCC3)nc2)cc1` [Compound I-1188], the IC50 is 131 nM. On to `CCOC(=O)c1cc2cc(/N=c3\[nH]c(=O)n(C[C@H](C)C(=O)OC)c(=O)n3Cc3ccc(Cl)cc3)ccc2o1` [Compound I-1938], for which the IC50 came out at 312 nM.

In the case of `CCn1c(=O)[nH]/c(=N\c2ccc(Oc3cncc(OC)n3)cc2)n(Cc2ccc(Cl)cc2)c1=O` [Compound I-2125], the concentration for half-maximal inhibition (IC50) came out at 7 nM. Consider `Cc1ccc(Cn2c(=O)n(CCCCC(=O)O)c(=O)[nH]/c2=N\c2ccc3nc(C)sc3c2)cc1` [Compound I-2158], for which the half-inhibitory concentration (IC50) came to 29 nM. Take `CCCOc1ccc(/N=c2\[nH]c(=O)n(C[C@H](C)C(=O)O)c(=O)n2Cc2ccc(Cl)cc2)cc1` [Compound I-0623]: the 50% inhibitory concentration (IC50) worked out at 20 nM. On the same count and under the same terms, in the case of `CCn1c(=O)[nH]/c(=N\c2ccc(Oc3cc(C(=O)OC)ncn3)cc2)n(Cc2ccc(Cl)cc2)c1=O` [Compound I-2206] it was 12 nM; in that of `COC(=O)[C@H](C)[C@H](C)n1c(=O)[nH]/c(=N\c2ccc(CC(C)C)c(Cl)c2)n(Cc2ccc(C)cc2)c1=O` [Compound I-1436], 54 nM. On to `Cc1ccc(Cn2c(=O)n(CCC(=O)O)c(=O)[nH]/c2=N\c2ccc(Oc3ccncc3)cc2)cc1` [Compound I-1228], for which the IC50 turned out to be 9 nM. As for `CCn1c(=O)[nH]/c(=N\c2ccc(Oc3ccnc(C(=O)OC)c3)cc2)n(CC2CCC3(CC2)CC3)c1=O` [Compound I-2174], the IC50 is 6 nM. Turning to `CNC(=O)CCn1c(=O)[nH]/c(=N\c2ccc(O[C@H](C)C(F)(F)F)cc2)n(Cc2ccc(Cl)cc2)c1=O` [Compound I-1957], the IC50 was 22 nM. With `CC(C)Oc1ccc(/N=c2\[nH]c(=O)n([C@H]3C[C@@H]3C(=O)O)c(=O)n2Cc2ccc(Cl)cc2)cc1F` [Compound I-0675], the 50% inhibitory concentration (IC50) came out at 37 nM.

As for `C[C@@H](Cn1c(=O)[nH]/c(=N\c2ccc(N3CCCCCC3)cc2)n(Cc2ccc(Cl)cc2)c1=O)C(=O)O` [Compound I-1235], the IC50 amounted to 214 nM. Turning to `Cc1cc(/N=c2\[nH]c(=O)n(CC[C@H](NC(=O)OC(C)(C)C)C(=O)O)c(=O)n2Cc2ccc(Cl)cc2)ccc1OC(C)C` [Compound I-0732, (S)-1-(4-chlorobenzyl)-3-(3-t-butoxycarbonylamino-3-hydroxycarbonylpropyl)-6-(3-mehyl-4-isopropoxyphenylimino)-1,3,5-triazinane-2,4-dion], the half-maximal inhibitory concentration (IC50) was found to be 41 nM. Turning to `Cc1ccc(Cn2c(=O)n([C@@H](C)[C@@H](C)C(=O)O)c(=O)[nH]/c2=N\c2ccc3nc(C)ccc3c2)cc1` [Compound I-1352], the IC50 turned out to be 26 nM. On to `COc1cc(Cn2c(=O)[nH]/c(=N\c3ccc(OC(C)C)c(F)c3)n(Cc3ccc(Cl)cc3)c2=O)ccn1` [Compound I-0642], for which the IC50 was 5 nM.

`CCOC(=O)c1cnc(Oc2ccc(/N=c3\[nH]c(=O)n(CC)c(=O)n3Cc3ccc(Cl)cc3)cc2)o1` [Compound I-2187]: the concentration for half-maximal inhibition (IC50) stood at 44 nM. Regarding `COC(=O)[C@H](C)[C@H](C)n1c(=O)[nH]/c(=N\c2ccc(CC(C)C)c(OC)c2)n(Cc2ccc(C)cc2)c1=O` [Compound I-1364], the IC50 was determined as 43 nM. Same read-out and setting: in the case of `COc1cc(/N=c2\[nH]c(=O)n(CCC(=O)O)c(=O)n2Cc2ccc(C)cc2)ccc1CC(C)C` [Compound I-1362] it was 54 nM; in that of `Cc1ccc(Cn2c(=O)n(C)c(=O)[nH]/c2=N\c2ccc(Oc3cncc(C(=O)O)c3)cc2)cc1` [Compound I-2121], 21 nM.

The same experiment, now with this note: C6BU-1 cells stably expressing human P2X3 receptor, Fluo-3 fluorescence, FDSS 3000.
For `Cc1ccc(Cn2c(=O)n(C[C@H](C)C(=O)O)c(=O)[nH]/c2=N\c2ccc(CC(C)C)c(C)c2)cc1` [Compound I-1044], the half-maximal inhibitory concentration (IC50) amounted to 19 nM. Still for that read-out and setting: in the case of `CCOC(=O)CCn1c(=O)[nH]/c(=N\c2ccc(OC(C)C)c(F)c2)n(CC2C[C@H]3CC[C@@H]2C3)c1=O` (stereo partly shown) [Compound I-1860] it was 150 nM; in that of `CCc1nc2ccc(/N=c3\[nH]c(=O)n(CCC(=O)NS(C)(=O)=O)c(=O)n3Cc3ccc(Cl)cc3)cc2s1` [Compound I-1875], 13 nM; in that of `COC(=O)[C@@H](C)Cn1c(=O)[nH]/c(=N\c2cccc(SC)c2)n(Cc2ccc(Cl)cc2)c1=O` [Compound I-1151], 46 nM.

As for `COC(=O)[C@@H](C)Cn1c(=O)[nH]/c(=N\c2ccc(CN(C)C)c(Cl)c2)n(Cc2ccc(C)cc2)c1=O` [Compound I-1172], the IC50 was determined as 97 nM.

With `CCCOc1ccc(/N=c2\[nH]c(=O)n(CC3(C(=O)O)CC3)c(=O)n2Cc2ccc(Cl)cc2)cc1` [Compound I-0925], the IC50 is 59 nM.

For `CCCc1ccc(Cn2c(=O)n(C[C@H](C)C(=O)OC)c(=O)[nH]/c2=N\c2ccc(OC(C)C)cc2)cc1` [Compound I-1144], the 50% inhibitory concentration (IC50) was found to be 764 nM. On the same count and under the same terms, under `COC(=O)[C@@H](C)Cn1c(=O)[nH]/c(=N\c2ccc(CC3CCCC3)cc2)n(Cc2ccc(Cl)cc2)c1=O` [Compound I-1097] stands 141 nM.

With `CC[C@H](C)COc1ccc(/N=c2\[nH]c(=O)n(C[C@H](C)C(=O)O)c(=O)n2Cc2ccc(C)cc2)cc1` [Compound I-1059], the IC50 came out at 123 nM. Same read-out and setting: under `O=C(O)CCn1c(=O)[nH]/c(=N\c2ccc(OCc3ccccn3)cc2)n(Cc2ccc(Cl)cc2)c1=O` [Compound I-1628] stands 683 nM; under `COC(=O)CCn1c(=O)[nH]/c(=N\c2cc(C(=O)OC)n(C)c2)n(Cc2ccc(C)cc2)c1=O` [Compound I-1836], 787 nM. Turning to `CCCc1nc2ccc(/N=c3\[nH]c(=O)n([C@@H](C)[C@@H](C)C(=O)O)c(=O)n3Cc3ccc(Cl)cc3)cc2s1` [Compound I-1792], the half-inhibitory concentration (IC50) is 20 nM. The same measure, in the same setting: under `Cc1cc2cc(/N=c3\[nH]c(=O)n([C@@H](C)[C@@H](C)C(=O)O)c(=O)n3Cc3ccc(Cl)cc3)cc(Cl)c2o1` [Compound I-1588] stands 67 nM; under `C[C@@H](C(=O)O)[C@H](C)n1c(=O)[nH]/c(=N\c2ccc3c(c2)C(=O)CC3)n(Cc2ccc(Cl)cc2)c1=O` [Compound I-1831], 739 nM; under `CC[C@H](C)COc1ccc(/N=c2\[nH]c(=O)n(C[C@H](C)C(=O)OC)c(=O)n2Cc2ccc(C)cc2)cc1` [Compound I-1045], 159 nM.

Turning to `C=C(C)c1ccc(Cn2c(=O)n(C[C@H](C)C(=O)OC)c(=O)[nH]/c2=N\c2ccc(OC(C)C)c(C)c2)cc1` [Compound I-0995], the concentration for half-maximal inhibition (IC50) stood at 276 nM.

Consider `CC1(C)OC[C@H](Cn2c(=O)[nH]/c(=N\c3ccc(OCC4CC4)cc3)n(Cc3ccc(Cl)cc3)c2=O)O1` [Compound I-1854], for which the IC50 amounted to 4 nM. `C[C@@H](C(=O)O)[C@H](C)n1c(=O)[nH]/c(=N\c2ccc3nc(-c4ccccc4)sc3c2)n(Cc2ccc(Cl)cc2)c1=O` [Compound I-1829]: the 50% inhibitory concentration (IC50) was found to be 92 nM.

Still in this experiment, the particulars now being: human P2X3 receptor, Test Example 1.
As for `Cn1c(=O)[nH]/c(=N\c2ccc(Oc3cccc(C(N)=O)n3)cc2)n(C[C@H]2CC[C@H](C)CC2)c1=O` [Compound I-2463], the concentration for half-maximal inhibition (IC50) amounted to 3 nM. As for `CCn1c(=O)[nH]/c(=N\c2ccc(Oc3ccc(C(=O)O)cn3)cc2)n(Cc2ccc(Cl)cc2)c1=O` [Compound I-2320], the IC50 turned out to be 6 nM. As for `CCn1c(=O)[nH]/c(=N\c2ccc(Oc3cccc(CO)n3)cc2)n(Cc2ccc(Cl)cc2)c1=O` [Compound I-2639], the half-inhibitory concentration (IC50) is 26 nM.

Turning to `Cc1ccc(Cn2c(=O)n(C[C@H](C)C(=O)O)c(=O)[nH]/c2=N\c2ccc(OCC(C)C)cc2)cc1` [Compound I-0827], the IC50 was found to be 26 nM. Still for that read-out and setting: in the case of `CCn1c(=O)[nH]/c(=N\c2ccc(Oc3ccc(NC(C)=O)nc3)cc2)n(Cc2ccc(Cl)cc2)c1=O` [Compound I-2241] it was 1 nM. `Cn1c(=O)[nH]/c(=N\c2ccc(Oc3cncc(C(=O)O)n3)cc2)n(Cc2ccc(Cl)cc2)c1=O` [Compound I-2476]: the concentration for half-maximal inhibition (IC50) is 13 nM.

As for `CCCOc1ccc(/N=c2\[nH]c(=O)n(C[C@H](C)C(=O)O)c(=O)n2Cc2ccc(C)cc2)cc1` [Compound I-0828], the concentration for half-maximal inhibition (IC50) came to 25 nM.

Turning to `CCn1c(=O)[nH]/c(=N\c2ccc(Oc3ccnc(C(=O)O)c3)cc2)n(Cc2ccc(F)cc2)c1=O` [Compound I-2360], the 50% inhibitory concentration (IC50) was 11 nM. Still for that read-out and setting: in the case of `Cn1c(=O)[nH]/c(=N\c2ccc(Oc3cncc(C(N)=O)n3)cc2)n(Cc2ccc(Cl)cc2)c1=O` [Compound I-2471] it was 5 nM; in that of `Cc1nsc(Oc2ccc(/N=c3\[nH]c(=O)n(CCO)c(=O)n3Cc3ccc(Cl)cc3)cc2)n1` [Compound I-2575], 6 nM. On to `CCn1c(=O)[nH]/c(=N\c2ccc(Oc3cncc(C(N)=O)n3)cc2)n(Cc2ccc(Cl)cc2)c1=O` [Compound I-2284], for which the concentration for half-maximal inhibition (IC50) is less than 4 nM. On to `Cn1c(=O)[nH]/c(=N\c2ccc(Oc3cc(C(=O)O)n[nH]3)cc2)n(Cc2ccc(Cl)cc2)c1=O` [Compound I-2411], for which the IC50 was determined as 166 nM.

Turning to `O=c1[nH]/c(=N\c2ccc(Oc3ccon3)cc2)n(Cc2ccc(Cl)cc2)c(=O)n1C[C@@H](O)CO` [Compound I-2408], the IC50 came to 14 nM. The same measure, in the same setting: under `O=C(Cn1c(=O)[nH]/c(=N\c2ccc(Oc3ccon3)cc2)n(Cc2ccc(Cl)cc2)c1=O)NCCO` [Compound I-2680] stands 12 nM; under `CCn1c(=O)[nH]/c(=N\c2ccc(Oc3cc(C(=O)OC)sn3)cc2)n(Cc2ccc(Cl)cc2)c1=O` [Compound I-2247], 3 nM. With `CNC(=O)Cn1c(=O)[nH]/c(=N\c2ccc(Oc3nccs3)cc2)n(Cc2ccc(Cl)cc2)c1=O` [Compound I-2645], the half-inhibitory concentration (IC50) came out at 18 nM. For `CCn1c(=O)[nH]/c(=N\c2ccc(Oc3cccc(C#N)n3)cc2)n(C[C@H]2CC[C@H](C)CC2)c1=O` [Compound I-2494], the IC50 was 1 nM. As for `CCn1c(=O)[nH]/c(=N\c2ccc(Oc3ncc(C(=O)OC)cn3)cc2)n(Cc2ccc(Cl)cc2)c1=O` [Compound I-2322], the IC50 worked out at 6 nM. On to `O=c1[nH]/c(=N\c2ccc(Oc3cccc(O)n3)cc2)n(Cc2ccc(Cl)cc2)c(=O)n1CC(CO)CO` [Compound I-2685], for which the half-maximal inhibitory concentration (IC50) turned out to be 12 nM.

Regarding `CCn1c(=O)[nH]/c(=N\c2ccc(Oc3nc(C(=O)O)cs3)cc2)n(C[C@H]2CC[C@H](C)CC2)c1=O` [Compound I-2348], the concentration for half-maximal inhibition (IC50) is 4 nM.

As for `CCOC(=O)C1(Cn2c(=O)[nH]/c(=N\c3ccc4nc(C)sc4c3)n(Cc3ccc(Cl)cc3)c2=O)CC1` [Compound I-1537], the IC50 was 3 nM.
